According to patent publication US11033539B2, “Compounds of formulas (VII), (VIII), (IX), (XI), (XII), (XIII), and (XIV) as muscarinic receptor 4(M4) antagonists for treating neurological diseases” (Neurocrine Biosciences, Inc., priority 2015, dated 2021):

How the values were obtained:
[1] = molecular target: human M5 receptor (Homo sapiens (Human), UniProt P08912); assay: Radioligand (tritiated N-methylscopolamine) binding assay, M5; details: CHO cell membranes expressing human M5; 1.5 nM tritiated N-methylscopolamine; 90 min, 37° C.; read-out: Ki against M5 receptor (Table 21, M5)
Procedure, shortened: (§1)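 Compounds were tested at twelve concentrations ranging from 10 μM to […] against 1.5 nM radioligand on CHO cell membranes expressing each subtype. Incubation lasts 90 min at 37 °C in HEPES-buffered saline with Mg2+ and EDTA, pH 7.4, and filtration then separates bound radioligand.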

[2] = molecular target: human M4 receptor (Homo sapiens (Human), UniProt P08173); assay: Radioligand (tritiated N-methylscopolamine) binding assay, M4; details: Ki against the M4 receptor; membranes from CHO cells expressing human M4; tritiated N-methylscopolamine 1.5 nM; read-out: Ki
Procedure, shortened: as §1

[3] = molecular target: human M2 receptor (Homo sapiens (Human), UniProt P08172); assay: Radioligand (tritiated N-methylscopolamine) binding assay, M2; details: CHO cell membranes expressing human M2; 1.5 nM tritiated N-methylscopolamine; 90 min, 37° C.; read-out: Ki against M2 receptor (Table 21, M2)
Procedure, shortened: as §1

[4] = molecular target: human M3 receptor (Homo sapiens (Human), UniProt P20309); assay: Radioligand (tritiated N-methylscopolamine) binding assay, M3; details: CHO cell membranes expressing human M3; 1.5 nM tritiated N-methylscopolamine; 90 min, 37° C.; read-out: Ki against M3 receptor (Table 21, M3)
Procedure, shortened: as §1

[5] = molecular target: human M1 receptor (Homo sapiens (Human), UniProt P11229); assay: Radioligand (tritiated N-methylscopolamine) binding assay, M1; details: CHO cell membranes expressing human M1; 1.5 nM tritiated N-methylscopolamine; 90 min, 37° C.; read-out: Ki against M1 receptor (Table 21, M1)
Procedure, shortened: as §1

Sequence of human M3 receptor (P20309 whole entry): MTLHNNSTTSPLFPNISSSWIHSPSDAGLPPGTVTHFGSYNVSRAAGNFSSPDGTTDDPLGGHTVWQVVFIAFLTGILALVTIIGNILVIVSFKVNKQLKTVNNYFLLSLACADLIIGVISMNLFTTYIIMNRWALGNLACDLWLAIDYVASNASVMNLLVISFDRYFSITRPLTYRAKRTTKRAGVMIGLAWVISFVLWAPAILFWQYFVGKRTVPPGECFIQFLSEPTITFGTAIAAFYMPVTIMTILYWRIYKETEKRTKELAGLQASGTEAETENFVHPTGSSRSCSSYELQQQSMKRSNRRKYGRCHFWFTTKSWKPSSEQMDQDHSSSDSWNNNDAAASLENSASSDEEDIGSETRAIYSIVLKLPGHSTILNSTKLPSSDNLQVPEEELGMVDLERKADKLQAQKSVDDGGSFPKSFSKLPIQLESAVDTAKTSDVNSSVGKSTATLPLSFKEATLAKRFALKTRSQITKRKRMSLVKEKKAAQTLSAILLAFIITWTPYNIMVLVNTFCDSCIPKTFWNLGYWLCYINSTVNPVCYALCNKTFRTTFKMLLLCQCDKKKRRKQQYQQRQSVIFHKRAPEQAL
Sequence of human M5 receptor (P08912 whole entry): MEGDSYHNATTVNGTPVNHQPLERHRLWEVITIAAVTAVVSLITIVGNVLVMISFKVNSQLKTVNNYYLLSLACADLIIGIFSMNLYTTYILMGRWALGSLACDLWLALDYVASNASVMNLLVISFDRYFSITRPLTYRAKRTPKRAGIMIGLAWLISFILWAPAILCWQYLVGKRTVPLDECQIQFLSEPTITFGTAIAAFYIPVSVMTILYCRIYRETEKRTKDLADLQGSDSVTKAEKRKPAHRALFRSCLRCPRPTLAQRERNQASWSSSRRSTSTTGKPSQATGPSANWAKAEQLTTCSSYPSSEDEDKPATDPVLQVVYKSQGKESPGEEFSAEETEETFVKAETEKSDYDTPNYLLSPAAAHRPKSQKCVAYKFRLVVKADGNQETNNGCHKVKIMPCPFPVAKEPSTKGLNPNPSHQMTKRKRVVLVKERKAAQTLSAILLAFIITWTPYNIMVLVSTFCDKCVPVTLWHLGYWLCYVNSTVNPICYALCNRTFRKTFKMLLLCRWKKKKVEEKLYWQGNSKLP
Sequence of human M2 receptor (P08172 whole entry): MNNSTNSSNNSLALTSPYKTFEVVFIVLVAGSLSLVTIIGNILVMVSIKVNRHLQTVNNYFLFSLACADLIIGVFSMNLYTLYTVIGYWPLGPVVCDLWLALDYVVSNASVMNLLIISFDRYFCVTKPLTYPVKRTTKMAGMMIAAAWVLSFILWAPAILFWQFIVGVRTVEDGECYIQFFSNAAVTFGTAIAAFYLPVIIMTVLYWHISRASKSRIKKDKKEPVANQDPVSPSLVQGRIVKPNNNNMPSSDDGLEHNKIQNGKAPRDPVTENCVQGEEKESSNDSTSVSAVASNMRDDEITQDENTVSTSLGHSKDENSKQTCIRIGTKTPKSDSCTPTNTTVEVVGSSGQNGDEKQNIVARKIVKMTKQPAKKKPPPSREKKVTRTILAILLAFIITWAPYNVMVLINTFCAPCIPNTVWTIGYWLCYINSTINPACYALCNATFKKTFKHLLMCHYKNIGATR
Sequence of human M1 receptor (P11229 whole entry): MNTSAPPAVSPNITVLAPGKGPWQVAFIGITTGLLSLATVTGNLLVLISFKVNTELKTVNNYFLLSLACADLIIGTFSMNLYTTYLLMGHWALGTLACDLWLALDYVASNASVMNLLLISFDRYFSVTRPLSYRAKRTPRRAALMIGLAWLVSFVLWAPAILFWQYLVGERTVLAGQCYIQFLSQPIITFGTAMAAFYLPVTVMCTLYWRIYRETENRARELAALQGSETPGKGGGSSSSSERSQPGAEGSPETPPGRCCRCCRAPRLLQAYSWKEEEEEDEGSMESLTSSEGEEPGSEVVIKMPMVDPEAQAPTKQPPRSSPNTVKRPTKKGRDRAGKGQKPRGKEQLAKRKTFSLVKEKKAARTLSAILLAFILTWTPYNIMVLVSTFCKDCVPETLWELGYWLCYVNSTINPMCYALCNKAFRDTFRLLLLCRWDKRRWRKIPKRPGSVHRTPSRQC
Sequence of human M4 receptor (P08173 whole entry): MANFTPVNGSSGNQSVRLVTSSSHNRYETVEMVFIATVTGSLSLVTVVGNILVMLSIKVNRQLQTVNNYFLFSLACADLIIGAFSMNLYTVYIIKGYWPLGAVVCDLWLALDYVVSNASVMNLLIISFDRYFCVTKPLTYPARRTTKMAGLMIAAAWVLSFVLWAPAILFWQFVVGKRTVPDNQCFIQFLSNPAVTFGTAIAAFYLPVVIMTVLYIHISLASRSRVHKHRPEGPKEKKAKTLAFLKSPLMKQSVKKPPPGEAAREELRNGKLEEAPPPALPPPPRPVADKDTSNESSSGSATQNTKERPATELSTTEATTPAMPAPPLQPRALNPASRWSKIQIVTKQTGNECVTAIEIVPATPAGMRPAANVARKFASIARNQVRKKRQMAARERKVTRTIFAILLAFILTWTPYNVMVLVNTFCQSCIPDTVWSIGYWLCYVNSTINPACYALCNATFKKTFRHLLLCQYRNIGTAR

Compound | Ki [1] [nM] | Ki [2] [nM] | Ki [3] [nM] | Ki [4] [nM] | Ki [5] [nM]
C[C@@H]1CN(c2ncc(Cl)cn2)C[C@H](C)N1C(=O)NCCC1CCN(Cc2ccccc2)CC1 [5-18, (2S,6R)-N-[2-(1-benzylpiperidin-4-yl)ethyl]-4-(5-chloropyrimidin-2-yl)-2,6-dimethylpiperazine-1-carboxamide] | > 1000 | < 10 | 10 to 100 | > 1000 | > 1000
C[C@H]1CN(c2ccc(OC(F)(F)F)c(F)c2)CCN1C(=O)NCCC1CCN(Cc2ccccc2)CC1 [4-53, (2S)-N-[2-(1-benzylpiperidin-4-yl)ethyl]-4-[3-fluoro-4-(trifluoromethoxy)phenyl]-2-methylpiperazine-1-carboxamide] | 100 to 1000 | < 10 | 10 to 100 | 100 to 1000 | 100 to 1000
C[C@@H]1CN(c2ccc(C(F)(F)F)cn2)CCN1C(=O)NCCC1CCN(Cc2ccccc2)CC1 [3-14, (2R)-N-[2-(1-benzylpiperidin-4-yl)ethyl]-2-methyl-4-[5-(trifluoromethyl)pyridin-2-yl]piperazine-1-carboxamide] | > 1000 | < 10 | 10 to 100 | > 1000 | 100 to 1000
C[C@@H]1CN(c2ncc(C#N)cn2)C[C@H](C)N1C(=O)NCCC1CCN(Cc2ccc3[nH]ccc3c2)CC1 [6-47, (2R,6S)-4-(5-cyanopyrimidin-2-yl)-N-{2-[1-(1H-indol-5-ylmethyl)-piperidin-4-yl]ethyl}-2,6-dimethylpiperazine-1-carboxamide] | 100 to 1000 | < 10 | < 10 | 100 to 1000 | 100 to 1000
O=C(NCCC1CCN(Cc2ccccc2)CC1)C1CCN(c2ncc(C(F)(F)F)cc2Cl)CC1 [9-63, N-[2-(1-benzylpiperidin-4-yl)ethyl]-1-[3-chloro-5(trifluoromethyl)pyridin-2-yl]piperidine-4-carboxamide] | 100 to 1000 | < 10 | < 10 | 10 to 100 | 10 to 100
C[C@@H]1CN(c2cc(F)c(F)c(Cl)c2)CCN1C(=O)NCCC1CCN(Cc2ccccc2)CC1 [4-52, (2R)-N-[2-(1-benzylpiperidin-4-yl)ethyl]-4-(3-chloro-4,5-difluorophenyl)-2-methylpiperazine-1-carboxamide] | > 1000 | < 10 | 10 to 100 | 100 to 1000 | 100 to 1000
C[C@@H]1CN(c2ncc(C(F)(F)F)c(N)n2)CCN1C(=O)NCCC1CCN(Cc2ccccc2)CC1 [5-29, (2R)-4-[4-amino-5-(trifluoromethyl)pyrimidin-2-yl]-N-[2-(1-benzylpiperidin-4-yl)ethyl]-2-methylpiperazine-1-carboxamide] | > 1000 | < 10 | 100 to 1000 | > 1000 | > 1000
COc1cc(N2CCC(C(=O)NCCC3CCN(Cc4ccccc4)CC3)CC2)ccc1OC(F)(F)F [10-10, N-[2-(1-benzylpiperidin-4-yl)ethyl]-1-[3-methoxy-4-(trifluoromethoxy)phenyl]piperidine-4-carboxamide] | > 1000 | < 10 | 100 to 1000 | > 1000 | 100 to 1000
O=C(NCCC1CCN(Cc2ccccc2)CC1)N1CCN(c2cnc(C(F)(F)F)cn2)CC1 [22-25, N-[2-(1-benzylpiperidin-4-yl)ethyl]-4-[5-(trifluoromethyl)pyrazin-2-yl]piperazine-1-carboxamide] | > 1000 | < 10 | 10 to 100 | > 1000 | > 1000
C[C@H]1CN(c2ccc(C#N)cn2)CCC1C(=O)NCCC1CCN(Cc2ccccc2)CC1 (stereo partly drawn) [10-79, (3R)-N-[2-(1-benzylpiperidin-4-yl)ethyl]-1-(5-cyanopyridin-2-yl)-3-methylpiperidine-4-carboxamide] | 100 to 1000 | < 10 | 10 to 100 | > 1000 | 100 to 1000
C[C@@H]1CN(c2cc(F)c(F)c(F)c2)CCN1C(=O)NC[C@H](O)C1CCN(Cc2ccccc2)CC1 [3-16, (2R)-N-[(2R)-2-(1-benzylpiperidin-4-yl)-2-hydroxyethyl]-2-methyl-4-(3,4,5-trifluorophenyl)piperazine-1-carboxamide] | > 1000 | < 10 | > 1000 | > 1000 | > 1000
O=C(NCCC1(CO)CCN(Cc2ccccc2)CC1)C1CCN(c2ccc(OC(F)(F)F)c(F)c2)CC1 [9-64, N-{2-[1-benzyl-4-(hydroxymethyl)piperidin-4-yl]ethyl}-1-[3-fluoro-4-(trifluoromethoxy)phenyl]piperidine-4-carboxamide] | > 1000 | < 10 | 100 to 1000 | > 1000 | 100 to 1000
Cc1c(C(=O)NCCC2CCN(Cc3ccccc3)CC2)cnc2cc(-c3cc(F)cc(F)c3)nn12 [18-5] | > 1000 | < 10 | 100 to 1000 | > 1000 | > 1000
C[C@H]1CN(c2ccc(OC(F)(F)F)cc2)CCN1C(=O)NCCC1CCN(Cc2ccccc2)CC1 [4-10, (2S)-N-[2-(1-benzylpiperidin-4-yl)ethyl]-2-methyl-4-[4-(trifluoromethoxy)phenyl]piperazine-1-carboxamide] | 100 to 1000 | < 10 | 10 to 100 | 100 to 1000 | 100 to 1000
C[C@@H]1CN(c2ccc(OC(F)(F)F)c(C#N)c2)CCN1C(=O)NCC[C@H]1CCN(Cc2ccccc2)C1 [9-10, (2R)-N-{2-[(3S)-1-benzylpyrrolidin-3-yl]ethyl}-4-[3-cyano-4-(trifluoromethoxy)phenyl]-2-methylpiperazine-1-carboxamide] | > 1000 | < 10 | 100 to 1000 | 100 to 1000 | 100 to 1000
C[C@@H]1CN(c2ccc(F)c(C#N)c2)CCN1C(=O)NC[C@@H](O)C1CCN(Cc2ccccc2)CC1 [3-18, (2R)-N-[(2S)-2-(1-benzylpiperidin-4-yl)-2-hydroxyethyl]-4-(3-cyano-4-fluorophenyl)-2-methylpiperazine-1-carboxamide] | > 1000 | < 10 | > 1000 | > 1000 | > 1000
O=C(NCCC1CCN(Cc2ccccc2)CC1CO)C1CCN(c2ccc(OC(F)(F)F)cc2)CC1 (stereo not drawn) [9-62, N-{2-[1-benzyl-3-(hydroxymethyl)piperidin-4-yl]ethyl}-1-[4-(trifluoromethoxy)phenyl]piperidine-4-carboxamide] | > 1000 | < 10 | 100 to 1000 | > 1000 | 100 to 1000
C[C@@H]1CN(c2ccc(OC(F)(F)F)c(C#N)c2)CCN1C(=O)NCCC1(O)CCN(Cc2ccccc2)CC1 [3-5, (2R)-N-[2-(1-benzyl-4-hydroxypiperidin-4-yl)ethyl]-4-[3-cyano-4-(trifluoromethoxy)phenyl]-2-methylpiperazine-1-carboxamide] | > 1000 | < 10 | 100 to 1000 | > 1000 | > 1000
C[C@@H]1CN(c2ccc(OC(F)(F)F)cc2F)CCN1C(=O)NCCC1CCN(Cc2ccccc2)CC1 [10-12, (2R)-N-[2-(1-benzylpiperidin-4-yl)ethyl]-4-[2-fluoro-4-(trifluoromethoxy)phenyl]-2-methylpiperazine-1-carboxamide] | 100 to 1000 | < 10 | 10 to 100 | 100 to 1000 | 100 to 1000
Nc1nc(N2CCN(C(=O)NCCC3CCN(Cc4ccccc4)CC3)CC2)ncc1C(F)(F)F [5-30, 4-[4-amino-5-(trifluoromethyl)pyrimidin-2-yl]-N-[2-(1-benzylpiperidin-4-yl)ethyl]piperazine-1-carboxamide] | > 1000 | < 10 | 100 to 1000 | > 1000 | > 1000
O=C(NCCC1CCN(Cc2ccccc2)CC1)N1CCN(c2ccc(C(F)(F)F)cn2)CC1 [4-77, N-[2-(1-benzylpiperidin-4-yl)ethyl]-4-[5-(trifluoromethyl)pyridin-2-yl]piperazine-1-carboxamide] | > 1000 | < 10 | 10 to 100 | > 1000 | 100 to 1000
Cc1c(C(=O)NCCC2CCN(Cc3ccccc3)CC2)cnc2cc(-c3ccc(F)cc3F)nn12 [18-1, N-[2-(1-benzylpiperidin-4-yl)ethyl]-2-(2,4-difluorophenyl)-7-methyl-pyrazolo[1,5-a]pyrimidine-6-carboxamide] | > 1000 | < 10 | 10 to 100 | > 1000 | > 1000
O=C(NCCC1(O)CCN(Cc2ccccc2)CC1)C1CCN(c2ccc(OC(F)(F)F)c(F)c2)CC1 [9-9, N-[2-(1-benzyl-4-hydroxypiperidin-4-yl)ethyl]-1-[3-fluoro-4-(trifluoromethoxy)phenyl]piperidine-4-carboxamide] | > 1000 | < 10 | 100 to 1000 | > 1000 | 100 to 1000
O=C(NCCC1CCN(Cc2ccccc2)CC1)c1ccc(-c2ccc(OC(F)(F)F)cc2)cc1F [9-6, N-[2-(1-benzylpiperidin-4-yl)ethyl]-2-fluoro-4-[4-(trifluoromethoxy)phenyl]benzamide] | 100 to 1000 | < 10 | 10 to 100 | 100 to 1000 | 100 to 1000
